Patent US11964990B2, “1,3,4,7-tetrahydro-2H-pyrrolo[3′,2′:5,6]pyrido[2,3-b][1,4]oxazepine bcl-2 inhibitors” (AbbVie Inc., priority 2022, dated 2024)

How the values were obtained:
RS4;11 cells = assay: Cell viability assay (CellTiter-Glo) in RS4;11 cell line; type: cell-based; conditions: 24 hours, 10% Human Serum, 50% decrease in cell viability
Description: (§1) The acute lymphoblastic leukemia (ALL) human cell line RS4;11 (ATCC, Manassas VA) was used as the primary human cell line to assess the cellular activity of compound of the present Examples in vitro and their efficacy in vivo. BH3 profiling, a mitochondrial assay that classifies blocks in the intrinsic apoptotic pathway, has shown that RS4;11 cells were highly dependent on Bcl-2 protein for survival and were sensitive to a Bcl-2 inhibitor (Blood. 2008; 111(4):2300-2309). […] The acute lymphoblastic leukemia cell line Molt-4, which is derived from immature T-lymphoid cells (T-ALL), was used as a counter screen assay.
(§2) Frozen RS4;11 or Molt-4 cells (ATCC, Manassas, VA, USA) were thawed overnight in RPMI 1640 media (Thermo Fisher Scientific, Waltham, MA, USA) supplemented with 1% penicillin/streptomycin (Thermo Fisher Scientific, Waltham, MA, USA), and 10% Human Serum (Sigma, St. Louis, MO, USA). 3000 Cells (0.1×10^6/mL) were seeded in each well of 384-well plate and were treated for 24 hours in a humidified chamber with 5% CO2. Cell viability was determined by CellTiter-Glo as described by the manufacturer's instructions (Promega Corporation, Madison, WI, USA). Responses were determined as a percentage of the control treated cells and the effective concentration (EC50) to induce a 50% decrease in cell viability were determined from sigmoidal dose-response curves using Dotmatics (Dotmatics Software Company, Bishops Stortford, Hertfordshire, England).

Molt-4 cells = assay: Cell viability counter screen assay (CellTiter-Glo) in Molt-4 cells; type: cell-based; conditions: 24 hours, 10% Human Serum, 50% decrease in cell viability
Description: as §1, §2

Compound	EC50 (RS4;11 cells) [nM]	EC50 (Molt-4 cells) [nM]
CC1(C)CC(c2ccc(Cl)cc2)=C2CN3CCN(c4ccc(C(=O)NS(=O)(=O)c5ccc(NCC6CCOCC6)c([N+](=O)[O-])c5)c(N5CCCOc6nc7[nH]ccc7cc65)c4)C[C@H]3COCCCO[C@@H]2C1 [Example 1, 4-((4aS,10aR)-14-(4-chlorophenyl)-12,12-dimethyl-1,2,4a,5,8,9,10a,11,13,15-decahydro-7H,12H-benzo[f]pyrazino[2,1-c][1,8]dioxa[4]azacycloundecin-3(4H)-yl)-2-(3,4-dihydro-2H-pyrrolo[3′,2′:5,6]pyrido[2,3-b][1,4]oxazepin-1(7H)-yl)-N-((3-nitro-4-(((tetrahydro-2H-pyran-4-yl)methyl)amino)phenyl)sulfonyl)benzamide]	4.01	> 10000
CC1(C)CC(c2ccc(Cl)cc2)=C2CN3CCN(c4ccc(C(=O)NS(=O)(=O)c5ccc(NC[C@H]6CC[C@](C)(O)CO6)c([N+](=O)[O-])c5)c(N5CCCOc6nc7[nH]ccc7cc65)c4)C[C@H]3COCCCO[C@@H]2C1 [Example 2, 4-((4aS,10aR)-14-(4-chlorophenyl)-12,12-dimethyl-1,2,4a,5,8,9,10a,11,13,15-decahydro-7H,12H-benzo[f]pyrazino[2,1-c][1,8]dioxa[4]azacycloundecin-3(4H)-yl)-2-(3,4-dihydro-2H-pyrrolo[3′,2′:5,6]pyrido[2,3-h][1,4]oxazepin-1(7H)-yl)-N-((4-((((2R,5S)-5-hydroxy-5-methyltetrahydro-2H-pyran-2-yl)methyl)amino)-3-nitrophenyl)sulfonyl)benzamide]	0.651	1220
CC1(C)CC(c2ccc(Cl)cc2)=C2CN3CCN(c4ccc(C(=O)NS(=O)(=O)c5ccc(NC[C@H]6COCCO6)c([N+](=O)[O-])c5)c(N5CCCOc6nc7[nH]ccc7cc65)c4)C[C@H]3COCCCO[C@@H]2C1 [Example 3, N-((4-((((S)-1,4-dioxan-2-yl)methyl)amino)-3-nitrophenyl)sulfonyl)-4-((4aS,10aR)-14-(4-chlorophenyl)-12,12-dimethyl-1,2,4a,5,8,9,10a,11,13,15-decahydro-7H,12H-benzo[f]pyrazino[2,1-c][1,8]dioxa[4]azacycloundecin-3(4H)-yl)-2-(3,4-dihydro-2H-pyrrolo[3′,2′:5,6]pyrido[2,3-b][1,4]oxazepin-1(7H)-yl)benzamide]	1.36	1410
CC1(C)CC(c2ccc(Cl)cc2)=C2CN3CCN(c4ccc(C(=O)NS(=O)(=O)c5cnc(OCC6(F)CCN(C7COC7)CC6)c(Cl)c5)c(N5CCCOc6nc7[nH]ccc7cc65)c4)C[C@H]3COCCCO[C@@H]2C1 [Example 4, N-((5-chloro-6-((4-fluoro-1-(oxetan-3-yl)piperidin-4-yl)methoxy)pyridin-3-yl)sulfonyl)-4-((4aS,10aR)-14-(4-chlorophenyl)-12,12-dimethyl-1,2,4a,5,8,9,10a,11,13,15-decahydro-7H,12H-benzo[f]pyrazino[2,1-c][1,8]dioxa[4]azacycloundecin-3(4H)-yl)-2-(3,4-dihydro-2H-pyrrolo[3′,2′:5,6]pyrido[2,3-b][1,4]oxazepin-1(7H)-yl)benzamide]	2.35	2000
CO[C@H]1CC[C@H](CNc2ccc(S(=O)(=O)NC(=O)c3ccc(N4CCN5CC6=C(c7ccc(Cl)cc7)CC(C)(C)C[C@H]6OCCCOC[C@@H]5C4)cc3N3CCCOc4nc5[nH]ccc5cc43)cc2[N+](=O)[O-])CC1 [Example 5, 4-((4aS,10aR)-14-(4-chlorophenyl)-12,12-dimethyl-1,2,4a,5,8,9,10a,11,13,15-decahydro-7H,12H-benzo[f]pyrazino[2,1-c][1,8]dioxa[4]azacycloundecin-3(4H)-yl)-2-(3,4-dihydro-2H-pyrrolo[3′,2′:5,6]pyrido[2,3-b][1,4]oxazepin-1(7H)-yl)-N-((4-((((1r,4r)-4-methoxycyclohexyl)methyl)amino)-3-nitrophenyl)sulfonyl)benzamide]	7.11	4460
C[C@@H]1CO[C@@H](CNc2ccc(S(=O)(=O)NC(=O)c3ccc(N4CCN5CC6=C(c7ccc(Cl)cc7)CC(C)(C)C[C@H]6OCCCOC[C@@H]5C4)cc3N3CCCOc4nc5[nH]ccc5cc43)cc2[N+](=O)[O-])CO1 [Example 6, 4-((4aS,10aR)-14-(4-chlorophenyl)-12,12-dimethyl-1,2,4a,5,8,9,10a,11,13,15-decahydro-7H,12H-benzo[f]pyrazino[2,1-c][1,8]dioxa[4]azacycloundecin-3(4H)-yl)-2-(3,4-dihydro-2H-pyrrolo[3′,2′:5,6]pyrido[2,3-b][1,4]oxazepin-1(7H)-yl)-N-((4-((((2S,5R)-5-methyl-1,4-dioxan-2-yl)methyl)amino)-3-nitrophenyl)sulfonyl)benzamide]	1.55	1910
CC1(C)CC(c2ccc(Cl)cc2)=C2CN3CCN(c4ccc(C(=O)NS(=O)(=O)c5cnc(OCC6(F)CCOCC6)c(Cl)c5)c(N5CCCOc6nc7[nH]ccc7cc65)c4)C[C@H]3COCCCO[C@@H]2C1 [Example 7, N-((5-chloro-6-((4-fluorotetrahydro-2H-pyran-4-yl)methoxy)pyridin-3-yl)sulfonyl)-4-((4aS,10aR)-14-(4-chlorophenyl)-12,12-dimethyl-1,2,4a,5,8,9,10a,11,13,15-decahydro-7H,12H-benzo[f]pyrazino[2,1-c][1,8]dioxa[4]azacycloundecin-3(4H)-yl)-2-(3,4-dihydro-2H-pyrrolo[3′,2′:5,6]pyrido[2,3-b][1,4]oxazepin-1(7H)-yl)benzamide]	5.46	> 10000
CC1(C)CC(c2ccc(Cl)cc2)=C2CN3CCN(c4ccc(C(=O)NS(=O)(=O)c5ccc(NC[C@H]6C[C@@](O)(CF)C6)c([N+](=O)[O-])c5)c(N5CCCOc6nc7[nH]ccc7cc65)c4)C[C@H]3COCCCO[C@@H]2C1 [Example 8, 4-((4aS,10aR)-14-(4-chlorophenyl)-12,12-dimethyl-1,2,4a,5,8,9,10a,11,13,15-decahydro-7H,12H-benzo[f]pyrazino[2,1-c][1,8]dioxa[4]azacycloundecin-3(4H)-yl)-2-(3,4-dihydro-2H-pyrrolo[3′,2′:5,6]pyrido[2,3-b][1,4]oxazepin-1(7H)-yl)-N-((4-((((1r,3r)-3-(fluoromethyl)-3-hydroxycyclobutyl)methyl)amino)-3-nitrophenyl)sulfonyl)benzamide]	3.61	7480
CC1(C)CC(c2ccc(Cl)cc2)=C2CN3CCN(c4ccc(C(=O)NS(=O)(=O)c5ccc(OCC6(F)CCN(C7COC7)CC6)c(Cl)c5)c(N5CCCOc6nc7[nH]ccc7cc65)c4)C[C@H]3COCCCO[C@@H]2C1 [Example 9, N-(3-chloro-4-{[4-fluoro-1-(oxetan-3-yl)piperidin-4-yl]methoxy}benzene-1-sulfonyl)-4-[(4aS,10aR)-14-(4-chlorophenyl)-12,12-dimethyl-1,2,4a,5,8,9,11,12,13,15-decahydro-7H,10aH-pyrazino[2,1-g][1,5,8]benzodioxazacycloundecin-3(4H)-yl]-2-(3,4-dihydro-2H-pyrrolo[3′,2′:5,6]pyrido[2,3-b][1,4]oxazepin-1(7H)-yl)benzamide]	7.96	5590
CC1(C)CC(c2ccc(Cl)cc2)=C2CN3CCN(c4ccc(C(=O)NS(=O)(=O)c5cnc(OC[C@]6(F)CC[C@@H](N7CCOCC7)CC6)c(Cl)c5)c(N5CCCOc6nc7[nH]ccc7cc65)c4)C[C@H]3COCCCO[C@@H]2C1 [Example 10, N-((5-chloro-6-(((1s,4s)-1-fluoro-4-morpholinocyclohexyl)methoxy)pyridin-3-yl)sulfonyl)-4-((4aS,10aR)-14-(4-chlorophenyl)-12,12-dimethyl-1,2,4a,5,8,9,10a,11,13,15-decahydro-7H,12H-benzo[f]pyrazino[2,1-c][1,8]dioxa[4]azacycloundecin-3(4H)-yl)-2-(3,4-dihydro-2H-pyrrolo[3′,2′:5,6]pyrido[2,3-b][1,4]oxazepin-1(7H)-yl)benzamide]	3.73	1560
CC1(C)CC(c2ccc(Cl)cc2)=C2CN3CCN(c4ccc(C(=O)NS(=O)(=O)c5cnc(OC[C@]6(F)CC[C@H](N7CCOCC7)CC6)c(Cl)c5)c(N5CCCOc6nc7[nH]ccc7cc65)c4)C[C@H]3COCCCO[C@@H]2C1 [Example 11, N-((5-chloro-6-(((1r,4r)-1-fluoro-4-morpholinocyclohexyl)methoxy)pyridin-3-yl)sulfonyl)-4-((4aS,10aR)-14-(4-chlorophenyl)-12,12-dimethyl-1,2,4a,5,8,9,10a, 11,13,15-decahydro-7H,12H-benzo[f]pyrazino[2,1-c][1,8]dioxa[4]azacycloundecin-3(4H)-yl)-2-(3,4-dihydro-2H-pyrrolo[3′,2′:5,6]pyrido[2,3-b][1,4]oxazepin-1(7H)-yl)benzamide]	19	3710
CC1(C)CC(c2ccc(Cl)cc2)=C2CN3CCN(c4ccc(C(=O)NS(=O)(=O)c5ccc(NC[C@H]6CC[C@H](O)CO6)c([N+](=O)[O-])c5)c(N5CCCOc6nc7[nH]ccc7cc65)c4)C[C@H]3COCCCO[C@@H]2C1 [Example 12, 4-((4aS,10aR)-14-(4-chlorophenyl)-12,12-dimethyl-1,2,4a,5,8,9,10a,11,13,15-decahydro-7H,12H-benzo[f]pyrazino[2,1-c][1,8]dioxa[4]azacycloundecin-3(4H)-yl)-2-(3,4-dihydro-2H-pyrrolo[3′,2′:5,6]pyrido[2,3-b][1,4]oxazepin-1(7H)-yl)-N-((4-((((2R,5S)-5-hydroxytetrahydro-2H-pyran-2-yl)methyl)amino)-3-nitrophenyl)sulfonyl)benzamide]	0.966	823
